Test results as given in ChEMBL document CHEMBL5385949, “Transient Receptor Potential Melastatin 7 (TRPM7) Ion Channel Inhibitors: Preliminary SAR and Conformational Studies of Xenicane Diterpenoids from the Hawaiian Soft Coral Sarcothelia edmondsoni” (J Nat Prod, 2024).
Active and inactive are the calls of the source. No cut-off for these calls is given here.

Key:
[1] = target: T1, Transient receptor potential cation channel subfamily M member 7 (Mus musculus, UniProt Q923J1); format: cell-based, HEK293
Description: Inhibition of FLAG-tagged mouse TRPM7 transfected in HEK293 cells assessed as inhibition of channel-mediated Mn2+ influx incubated for ~15 mins and measured for 90 secs by Fura-2-dye based fluorescence analysis

[2] = 1-Octanol/water partition coefficient, log P of the compound by LC-MS analysis; format: physicochemical
[3] = target: T2, Transient receptor potential cation channel subfamily M member 7 (Homo sapiens, UniProt Q96QT4); experiment: Irreversible covalent inhibition of human TRPM7 transfected in Tet-inducible HEK293-T-REx cells assessed as inhibition of channel current at 10 uM incubated for 50 to 150 secs and measured for 10 mins after drug wash-out by whole cell patch clamp analysis; format: cell-based; details: time 50-150 sec
[4] = target: T2, Transient receptor potential cation channel subfamily M member 7; experiment: Covalent inhibition of human TRPM7 transfected in Tet-inducible HEK293-T-REx cells assessed as inhibition of channel current at 10 uM incubated for 50 to 150 secs by whole cell patch clamp analysis; format: cell-based; details: time 50-150 sec
[5] = target: T1, Transient receptor potential cation channel subfamily M member 7; experiment: Inhibition of mouse TRPM7 expressed in HEK293 cells assessed as inhibition of channel current in presence of 700 uM intracellular Mg2+ by whole cell patch clamp analysis; format: cell-based
[6] = target: T1, Transient receptor potential cation channel subfamily M member 7; experiment: Inhibition of HA-tagged mouse TRPM7 transfected in HEK293 cells assessed as inhibition of channel current by whole cell patch clamp analysis; format: cell-based
[7] = target: T1, Transient receptor potential cation channel subfamily M member 7; experiment: Inhibition of mouse TRPM7 transfected in HEK293T cells assessed as inhibition of channel current in absence of intracellular Mg2+ by whole cell patch clamp analysis; format: cell-based
[8] = target: T2, Transient receptor potential cation channel subfamily M member 7; experiment: Inhibition of human TRPM7 transfected in Tet-inducible HEK293-T-REx cells assessed as inhibition of channel current in presence of 780 uM intracellular Mg2+ by whole cell patch clamp analysis; format: cell-based
[9] = target: T1, Transient receptor potential cation channel subfamily M member 7; experiment: Inhibition of mouse TRPM7 transfected in HEK293 cells assessed as inhibition of channel current in presence of 780 uM free intracellular Mg2+ by whole cell patch clamp analysis; format: cell-based
[10] = target: T1, Transient receptor potential cation channel subfamily M member 7; experiment: Inhibition of mouse TRPM7 transfected in HEK293 cells assessed as inhibition of channel current in presence of 300 uM free intracellular Mg2+ by whole cell patch clamp analysis; format: cell-based
[11] = target: T1, Transient receptor potential cation channel subfamily M member 7; experiment: Inhibition of mouse TRPM7 transfected in HEK293 cells assessed as inhibition of channel current in absence of intracellular Mg2+ by whole cell patch clamp analysis; format: cell-based
[12] = target: T2, Transient receptor potential cation channel subfamily M member 7; experiment: Inhibition of human TRPM7 transfected in HEK293 cells assessed as inhibition of channel current by whole cell patch clamp analysis; format: cell-based

T2 sequence (Q96QT4 whole entry): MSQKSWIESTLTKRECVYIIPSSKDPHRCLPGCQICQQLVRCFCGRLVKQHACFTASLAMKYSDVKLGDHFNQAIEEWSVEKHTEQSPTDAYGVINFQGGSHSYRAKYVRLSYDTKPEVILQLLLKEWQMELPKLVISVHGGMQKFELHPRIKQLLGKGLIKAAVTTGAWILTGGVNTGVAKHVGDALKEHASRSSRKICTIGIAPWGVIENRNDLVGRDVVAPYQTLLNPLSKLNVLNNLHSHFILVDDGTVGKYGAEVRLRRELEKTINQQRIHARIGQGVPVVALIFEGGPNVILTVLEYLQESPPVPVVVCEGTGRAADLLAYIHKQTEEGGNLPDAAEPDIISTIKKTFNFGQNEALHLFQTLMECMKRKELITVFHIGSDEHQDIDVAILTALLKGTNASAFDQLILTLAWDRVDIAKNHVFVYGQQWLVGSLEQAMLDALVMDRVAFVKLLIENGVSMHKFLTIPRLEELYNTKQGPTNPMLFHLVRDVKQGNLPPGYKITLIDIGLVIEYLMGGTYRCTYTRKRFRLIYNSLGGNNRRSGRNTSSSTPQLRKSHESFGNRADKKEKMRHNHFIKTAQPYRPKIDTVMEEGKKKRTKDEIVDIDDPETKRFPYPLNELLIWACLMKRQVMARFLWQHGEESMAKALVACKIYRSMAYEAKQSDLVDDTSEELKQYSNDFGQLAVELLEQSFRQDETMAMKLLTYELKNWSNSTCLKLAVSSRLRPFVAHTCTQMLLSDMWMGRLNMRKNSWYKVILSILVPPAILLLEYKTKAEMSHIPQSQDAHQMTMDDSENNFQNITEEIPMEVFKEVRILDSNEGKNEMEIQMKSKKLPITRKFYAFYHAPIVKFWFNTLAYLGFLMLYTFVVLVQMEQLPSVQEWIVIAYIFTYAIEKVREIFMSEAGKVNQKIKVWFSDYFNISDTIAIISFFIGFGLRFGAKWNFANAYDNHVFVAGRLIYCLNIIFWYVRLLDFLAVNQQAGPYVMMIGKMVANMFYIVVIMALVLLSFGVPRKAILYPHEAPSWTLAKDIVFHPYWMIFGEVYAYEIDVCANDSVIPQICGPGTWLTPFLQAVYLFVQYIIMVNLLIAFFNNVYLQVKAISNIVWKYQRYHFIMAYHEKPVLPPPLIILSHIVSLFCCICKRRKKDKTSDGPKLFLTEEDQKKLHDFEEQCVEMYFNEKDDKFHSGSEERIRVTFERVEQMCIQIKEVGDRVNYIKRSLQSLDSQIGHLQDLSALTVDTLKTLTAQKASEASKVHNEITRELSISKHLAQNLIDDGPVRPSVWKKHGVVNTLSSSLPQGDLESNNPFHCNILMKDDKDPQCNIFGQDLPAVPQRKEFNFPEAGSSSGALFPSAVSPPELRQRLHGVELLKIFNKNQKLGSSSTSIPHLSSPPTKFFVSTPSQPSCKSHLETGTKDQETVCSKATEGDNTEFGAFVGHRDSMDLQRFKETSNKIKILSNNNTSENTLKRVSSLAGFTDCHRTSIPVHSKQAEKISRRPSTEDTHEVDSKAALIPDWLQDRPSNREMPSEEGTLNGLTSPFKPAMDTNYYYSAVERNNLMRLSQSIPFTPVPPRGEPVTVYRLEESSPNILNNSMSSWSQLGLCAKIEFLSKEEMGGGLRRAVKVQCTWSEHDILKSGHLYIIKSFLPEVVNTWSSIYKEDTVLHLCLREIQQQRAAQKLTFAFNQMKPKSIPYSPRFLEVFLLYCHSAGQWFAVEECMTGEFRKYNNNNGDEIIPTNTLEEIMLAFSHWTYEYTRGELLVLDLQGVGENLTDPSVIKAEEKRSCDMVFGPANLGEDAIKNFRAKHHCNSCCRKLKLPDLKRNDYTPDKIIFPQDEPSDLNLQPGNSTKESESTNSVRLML
T1 sequence (Q923J1 whole entry): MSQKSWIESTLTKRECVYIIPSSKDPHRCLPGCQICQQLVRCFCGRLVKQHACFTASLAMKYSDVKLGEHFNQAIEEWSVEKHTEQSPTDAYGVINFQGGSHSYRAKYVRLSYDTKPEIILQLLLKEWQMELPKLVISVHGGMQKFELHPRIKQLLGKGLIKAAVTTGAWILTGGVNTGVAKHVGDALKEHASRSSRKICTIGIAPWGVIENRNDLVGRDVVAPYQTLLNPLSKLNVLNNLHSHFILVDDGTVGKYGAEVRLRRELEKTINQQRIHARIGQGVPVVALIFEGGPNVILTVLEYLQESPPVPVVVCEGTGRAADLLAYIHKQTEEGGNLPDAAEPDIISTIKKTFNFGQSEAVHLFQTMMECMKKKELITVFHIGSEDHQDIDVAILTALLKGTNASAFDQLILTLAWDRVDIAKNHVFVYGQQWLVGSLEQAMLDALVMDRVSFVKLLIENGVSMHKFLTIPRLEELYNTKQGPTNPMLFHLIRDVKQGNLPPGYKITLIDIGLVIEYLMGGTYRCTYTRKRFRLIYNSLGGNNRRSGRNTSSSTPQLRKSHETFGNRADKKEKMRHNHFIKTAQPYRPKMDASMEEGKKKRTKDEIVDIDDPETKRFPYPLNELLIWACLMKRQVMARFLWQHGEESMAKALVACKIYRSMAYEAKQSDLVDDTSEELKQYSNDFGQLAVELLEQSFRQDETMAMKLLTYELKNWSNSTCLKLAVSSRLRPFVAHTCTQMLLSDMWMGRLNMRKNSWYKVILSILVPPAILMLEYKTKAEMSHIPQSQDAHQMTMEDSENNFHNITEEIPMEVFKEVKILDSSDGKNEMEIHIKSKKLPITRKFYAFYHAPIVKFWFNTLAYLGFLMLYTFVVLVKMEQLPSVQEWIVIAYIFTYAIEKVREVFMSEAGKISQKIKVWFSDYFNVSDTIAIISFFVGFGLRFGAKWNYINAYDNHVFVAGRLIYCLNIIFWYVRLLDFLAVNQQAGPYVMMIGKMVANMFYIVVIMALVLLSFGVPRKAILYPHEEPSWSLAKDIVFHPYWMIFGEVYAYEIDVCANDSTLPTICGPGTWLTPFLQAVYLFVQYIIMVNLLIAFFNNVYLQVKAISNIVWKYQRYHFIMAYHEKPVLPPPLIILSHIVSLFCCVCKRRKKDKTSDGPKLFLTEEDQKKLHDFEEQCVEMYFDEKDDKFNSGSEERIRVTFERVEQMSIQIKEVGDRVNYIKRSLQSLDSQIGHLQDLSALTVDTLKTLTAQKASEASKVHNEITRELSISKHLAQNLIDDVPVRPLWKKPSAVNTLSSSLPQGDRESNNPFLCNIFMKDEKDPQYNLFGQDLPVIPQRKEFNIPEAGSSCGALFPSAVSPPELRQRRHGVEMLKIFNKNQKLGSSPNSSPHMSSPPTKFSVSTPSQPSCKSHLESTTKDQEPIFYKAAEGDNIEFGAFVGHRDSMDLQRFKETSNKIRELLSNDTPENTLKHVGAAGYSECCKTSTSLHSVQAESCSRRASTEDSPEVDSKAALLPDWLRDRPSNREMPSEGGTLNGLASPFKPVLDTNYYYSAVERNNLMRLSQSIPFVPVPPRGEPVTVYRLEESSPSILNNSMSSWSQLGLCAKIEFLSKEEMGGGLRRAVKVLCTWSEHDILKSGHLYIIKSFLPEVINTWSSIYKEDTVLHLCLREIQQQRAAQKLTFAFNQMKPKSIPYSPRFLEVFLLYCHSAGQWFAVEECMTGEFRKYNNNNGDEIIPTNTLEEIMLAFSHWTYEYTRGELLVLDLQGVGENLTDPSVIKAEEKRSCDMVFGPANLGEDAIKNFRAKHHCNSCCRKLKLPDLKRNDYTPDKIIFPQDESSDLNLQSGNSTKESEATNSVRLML

Q: For `C=C1[C@@H]2[C@@H](OC(C)=O)OC=C([C@H](C/C=C(\C)COC(C)=O)OC(C)=O)[C@H]2CC[C@]2(C)O[C@H]2C[C@H]1O`, which IC50 [1] is on record?
A: Its IC50 is 13 µM.

Q: Which IC50 [1] does the source give for `C=C1CC[C@@H]2O[C@@]2(C)CC[C@@H]2C([C@H](C/C=C(\C)COC(C)=O)OC(C)=O)=CO[C@H](OC(C)=O)[C@@H]12` here?
A: Its IC50 is 33 µM.

Q: For `C=C1CC/C=C(\C)CC[C@@H]2C([C@@H](O)C/C=C(\C)COC(C)=O)=CO[C@H](OC(C)=O)[C@@H]12`, which IC50 [1] is on record?
A: Its IC50 is greater than 130 µM.

Q: Which results are given for `C=C1CC/C=C(\C)CC[C@@H]2C([C@H](C/C=C(\C)COC(C)=O)OC(C)=O)=CO[C@H](OC(C)=O)[C@@H]12`?
A: logP [2]: 3.8; inhibition [3]: Active; IC50 [1]: 20 µM; inhibition [4]: Active; IC50 [5]: 0.016 µM

Q: For `NCCOB(c1ccccc1)c1ccccc1`, which IC50 [1] is on record?
A: The IC50 was 22 µM.

Q: With `CCCCCCCCc1ccc(CCC(N)(CO)CO)cc1` [FINGOLIMOD] as the compound, how does the IC50 [6] read?
A: The IC50 was 0.72 µM.

Q: For `N#Cc1ccc(COC[C@H]2O[C@@H](n3c(NCc4ccc(Cl)c(Cl)c4)nc4c(N)ncnc43)[C@H](O)[C@@H]2O)cc1`, which IC50 [7] is on record?
A: Its IC50 is 0.11 µM.

Q: Which IC50 [1] does the source give for `C=C1CC/C=C(\C)CC[C@H]2[C@H]1[C@H]1O[C@H](O)[C@]2(/C=C/C=C(\C)COC(C)=O)O1` here?
A: Its IC50 is greater than 150 µM.

Q: For `C=C1CC[C@@H]2O[C@@]2(C)CC[C@@H]2C(C=O)=C[C@@H](/C=C(\C)COC(C)=O)[C@H](O)[C@@H]12`, which IC50 [1] is on record?
A: The IC50 was greater than 150 µM.

Q: What does the source list for `C=C1[C@@H]2[C@@H](OC(C)=O)OC=C([C@H](C/C=C(\C)COC(C)=O)OC(C)=O)[C@H]2CC/C(C)=C/C[C@H]1O`?
A: IC50 [1]: 12 µM; IC50 [8]: 0.09 µM

Q: For `c1ccc2c(c1)CCC[C@H]2Nc1nc2ccccc2[nH]1`, which IC50 [9] is on record?
A: Its IC50 is 3.9 µM.

Q: What about the IC50 [10] of the same compound?
A: The IC50 was 5.9 µM.

Q: And the IC50 [11]?
A: The IC50 was 1.6 µM.

Q: With `C=C1CC[C@H](OC(C)=O)C(=C)CC[C@@H]2C([C@H](C/C=C(\C)COC(C)=O)OC(C)=O)=CO[C@H](OC(C)=O)[C@@H]12` as the compound, how does the IC50 [1] read?
A: Its IC50 is 20 µM.

Q: With `CCCCCc1cc(O)c(C/C=C(\C)CCC=C(C)C)c(O)c1C(=O)O` [CANNABIGEROLIC ACID] as the compound, how does the IC50 [12] read?
A: The IC50 was 2.7 µM.
